{"source": "patent US9340559B2", "about": "“Proteasome inhibitor delanzomib for use in the treatment of lupus” (Cephalon, Inc., priority 2011, dated 2016)", "type_in_all_cases": "in vivo, mouse", "key": {"[1]": {"tested_on": "MRL/lpr mice", "assay": "Urinalysis: total urine protein (proteinuria), MRL/lpr mice", "procedure": "Urine samples are acid precipitated for total protein recovery and analysis. Samples for which enough urine remained are used for Uristix® leukouria analysis. Briefly, a standard protein solution is prepared from normal mouse sera and is used as a standard for mouse urinary protein assay by turbidity. Standard preparation is as follows: 0, 5, 10, 15, 20, 30, 40, and 50 μL of a 4 mg/mL mouse sera standard protein solution as provided in the kit are added in duplicate into two columns. PBS is added to individual wells to adjust the final volume to 50 μL. For urine sample preparation, urine samples are centrifuged at 9880×g for 3 minutes using a tabletop micro-centrifuge. Urine supernatant (1-50 μL) is added in duplicate. PBS is added to adjust the volume to 50 μL total. For the turbidity assay: 25 μL of 0.1 N HCl is added into blank columns and 250 μL of 3% sulfosalicyclic acid into the test columns. The microplate is incubated for 10 minutes at RT and plates are read using an ELISA reader with single beam at 450 nm. For the Uristix® strip assay, strips are laid out and labeled. Twenty microliters of urine are placed onto each test strip square and incubated for at least 30 seconds before the result is recorded. For all total urine analysis plate-based assays, values below the limit of detection set by the lowest point along the standard or set by the manufacturer are considered out of range and are not estimated, but assumed the lowest point along the standard curve for that particular assay."}, "[2]": {"tested_on": "MRL/lpr mice", "assay": "Luminex analysis of serum cytokines (IL-12p40/p70, IL-1β, TNFα), MRL/lpr mice", "procedure": "For the processing of serum samples for cytokine analysis, frozen plasma at −80° C. is thawed on ice, vortexed, and centrifuged for 10 minutes to remove debris and aggregates. A total of 25-50 μL of serum is used for Luminex® assays following the manufacturer's instructions. Ten different mouse cytokines are measured using the mouse cytokine 10-plex bead kit (Invitrogen, Carlsbad, Calif., no. LMC0001). Briefly, filter plates (Millipore, Billerica, Mass., no. MAIPSWU10), are pre-wet with 200 μL of wash solution (kit component) and 25 μL of beads are added per well. Serum samples are diluted and a total volume of 50 μL is added per well (ie, 25 μL of sample serum plus 25 μL of assay diluent as provided by the manufacturer). Plates with beads are incubated for 2 hours at room temperature (RT) on an orbital shaker in the dark. At the end of the incubation, plate(s) are washed twice in kit buffer, secondary biotinylated antibody is added at a 1:10 dilution (100 μL) in biotin diluent provided with the kit. Plates are incubated at RT for 1 hour in the dark then washed twice in kit buffer. Strepavidin in assay diluent is added at 100 μL per well, then incubated for 30 minutes at RT in the dark. The plates are washed 3 times then 100 μL of kit wash solution is added and agitated for 2-3 minutes at RT in the dark. Plates are run immediately following this incubation period on a Luminex xMAP 200 unit with data acquisition and analysis software (Invitrogen, San Diego, Calif., no. MAP0200). All bead washing is performed using a vacuum manifold unit (Pall, Ann Arbor, Mich. no. 5017). For all cytokine Luminex assays, values below the limit of detection set by the lowest point along the standard or set by the manufacturer are considered out of range and are not estimated, but assumed the lowest point along the standard curve for that particular assay.\n(§1) Mice are tracked on an individual basis.\n(§2) Vehicle alone is provided orally twice weekly (p.o.). Both proteasome inhibitors are suspended in the vehicle solution. […] In addition, urine proteinuria is determined for all animals.\n(§3) Vehicle was 3% DMSO/10% Solutol/87% PBS."}, "[3]": {"tested_on": "NZM mice", "assay": "Splenomegaly (spleen mass), NZM mice (Example 2)"}, "[4]": {"tested_on": "MRL/lpr mice", "assay": "Lymphomegaly (enlarged lymph nodes), MRL/lpr mice", "conditions": "for lymphomegaly decrease compared to vehicle: iv", "procedure": "FIG. 4 depicts lymphomegaly for MRL/lpr mice across treatment groups for the study duration. MRL/lpr mice were treated as outlined in the legend. Lymphomegaly or presence of enlarged lymph nodes were observed weekly and noted.\nas §1, §2, §3"}}, "data": [{"smiles": "CC(C)C[C@H](NC(=O)[C@@H](NC(=O)c1cccc(-c2ccccc2)n1)[C@@H](C)O)B(O)O", "note": "[COMPOUND A, [(1R)-1-[[(2S,3R)-3-hydroxy-2-[6-phenyl-pyridine-2-carbonyl)amino]-1-oxobutyl]amino]-3-methylbutylboronic acid]", "values": [{"measurement": "Urine AUC proteinuria, percent change vs vehicle", "setting": "[1]; G1: 3 mg/kg iv, 1× wk", "result": "−60", "unit": "%"}, {"measurement": "Urine AUC proteinuria, percent change vs vehicle", "setting": "[1]; G2: 3 mg/kg iv, 2× wk", "result": "−70", "unit": "%"}, {"measurement": "Urine AUC proteinuria, percent change vs vehicle", "setting": "[1]; G3: 10 mg/kg po, 2× wk", "result": "−71", "unit": "%"}, {"measurement": "total urine protein reduction relative to vehicle", "setting": "[1]; Group 1", "result": 60, "unit": "%"}, {"measurement": "total urine protein reduction relative to vehicle", "setting": "[1]; Group 2", "result": 70, "unit": "%"}, {"measurement": "total urine protein reduction relative to vehicle", "setting": "[1]; Group 3", "result": 71, "unit": "%"}, {"measurement": "serum IL-1β by EOS", "setting": "[2]; 3 mg/kg twice weekly, vehicle 16.8 pg/mL", "result": 5.7, "unit": "pg/mL"}, {"measurement": "Cytokine AUC serum IL-1β, percent change vs vehicle", "setting": "[2]; G1: 3 mg/kg iv, 1× wk", "result": "−56", "unit": "%"}, {"measurement": "Cytokine AUC serum IL-12, percent change vs vehicle", "setting": "[2]; G1: 3 mg/kg iv, 1× wk", "result": "−48", "unit": "%"}, {"measurement": "Cytokine AUC serum TNFα, percent change vs vehicle", "setting": "[2]; G1: 3 mg/kg iv, 1× wk", "result": "−62", "unit": "%"}, {"measurement": "Cytokine AUC serum IL-1β, percent change vs vehicle", "setting": "[2]; G2: 3 mg/kg iv, 2× wk", "result": "−61", "unit": "%"}, {"measurement": "Cytokine AUC serum IL-12, percent change vs vehicle", "setting": "[2]; G2: 3 mg/kg iv, 2× wk", "result": "−72", "unit": "%"}, {"measurement": "Cytokine AUC serum TNFα, percent change vs vehicle", "setting": "[2]; G2: 3 mg/kg iv, 2× wk", "result": "−79", "unit": "%"}, {"measurement": "Cytokine AUC serum IL-1β, percent change vs vehicle", "setting": "[2]; G3: 10 mg/kg po, 2× wk", "result": "−58", "unit": "%"}, {"measurement": "Cytokine AUC serum IL-12, percent change vs vehicle", "setting": "[2]; G3: 10 mg/kg po, 2× wk", "result": "−62", "unit": "%"}, {"measurement": "Cytokine AUC serum TNFα, percent change vs vehicle", "setting": "[2]; G3: 10 mg/kg po, 2× wk", "result": "−71", "unit": "%"}, {"measurement": "Spleen mass EOS, percent change vs vehicle", "setting": "[3]; G1 3 mg/kg ip, 1× wk", "result": "−37", "unit": "%"}, {"measurement": "splenomegaly decrease vs vehicle at EOS", "setting": "[3]; G1: 3 mg/kg ip once per week", "result": 37, "unit": "%"}, {"measurement": "Spleen mass EOS, percent change vs vehicle", "setting": "[3]; G2 3 mg/kg ip, 2× wk", "result": "−34", "unit": "%"}, {"measurement": "splenomegaly decrease vs vehicle at EOS", "setting": "[3]; G2: 3 mg/kg ip twice weekly", "result": 34, "unit": "%"}, {"measurement": "spleen mass compared to once-a-week bortezomib", "setting": "[3]; p<0.05", "result": "reduced spleen mass significantly"}, {"measurement": "AUC lymphomegaly, percent of non enlarged lymph nodes relative to vehicle", "setting": "[4]; G1: 3 mg/kg iv, 1× wk", "result": 71, "unit": "%"}, {"measurement": "AUC lymphomegaly, percent of non enlarged lymph nodes relative to vehicle", "setting": "[4]; G2: 3 mg/kg iv, 2× wk", "result": 34, "unit": "%"}, {"measurement": "AUC lymphomegaly, percent of non enlarged lymph nodes relative to vehicle", "setting": "[4]; G3: 10 mg/kg po, 2× wk", "result": 9, "unit": "%"}, {"measurement": "lymphomegaly decrease compared to vehicle", "setting": "[4]; first value (G1: 3 mg/kg 1× wk)", "result": 71, "unit": "%"}, {"measurement": "lymphomegaly decrease compared to vehicle", "setting": "[4]; second value (G2: 3 mg/kg 2× wk)", "result": 34, "unit": "%"}]}, {"smiles": "CC(C)C[C@H](NC(=O)[C@H](Cc1ccccc1)NC(=O)c1cnccn1)B(O)O", "note": "[bortezomib, reference compound]", "values": [{"measurement": "Urine AUC proteinuria, percent change vs vehicle", "setting": "[1]; G4: 0.5 mg/kg iv, 1× wk", "result": "−55", "unit": "%"}, {"measurement": "Urine AUC proteinuria, percent change vs vehicle", "setting": "[1]; G5: 0.3 mg/kg iv, 2× wk", "result": "−50", "unit": "%"}, {"measurement": "proteinuria decrease relative to vehicle", "setting": "[1]; treated weekly with bortezomib", "result": 55, "unit": "%"}, {"measurement": "Cytokine AUC serum IL-1β, percent change vs vehicle", "setting": "[2]; G4: 0.5 mg/kg iv, 1× wk", "result": "−46", "unit": "%"}, {"measurement": "Cytokine AUC serum IL-12, percent change vs vehicle", "setting": "[2]; G4: 0.5 mg/kg iv, 1× wk", "result": "−54", "unit": "%"}, {"measurement": "Cytokine AUC serum TNFα, percent change vs vehicle", "setting": "[2]; G4: 0.5 mg/kg iv, 1× wk", "result": "−64", "unit": "%"}, {"measurement": "Cytokine AUC serum IL-1β, percent change vs vehicle", "setting": "[2]; G5: 0.3 mg/kg iv, 2× wk", "result": "−51", "unit": "%"}, {"measurement": "Cytokine AUC serum IL-12, percent change vs vehicle", "setting": "[2]; G5: 0.3 mg/kg iv, 2× wk", "result": "−54", "unit": "%"}, {"measurement": "Cytokine AUC serum TNFα, percent change vs vehicle", "setting": "[2]; G5: 0.3 mg/kg iv, 2× wk", "result": "−71", "unit": "%"}, {"measurement": "Spleen mass EOS, percent change vs vehicle", "setting": "[3]; G3 0.3 mg/kg ip, 1× wk", "result": "+14%"}, {"measurement": "Spleen mass EOS, percent change vs vehicle", "setting": "[3]; G4 0.3 mg/kg ip, 2× wk", "result": "−19", "unit": "%"}, {"measurement": "AUC lymphomegaly, percent of non enlarged lymph nodes relative to vehicle", "setting": "[4]; G4: 0.5 mg/kg iv, 1× wk", "result": 13, "unit": "%"}, {"measurement": "AUC lymphomegaly, percent of non enlarged lymph nodes relative to vehicle", "setting": "[4]; G5: 0.3 mg/kg iv, 2× wk", "result": 21, "unit": "%"}, {"measurement": "effect on lymphomegaly", "setting": "[4]; bortezomib treatment groups", "result": "did not significantly reduce lymphomegaly"}]}, {"smiles": "C[C@@H]1C[C@H]2[C@@H]3CCC4=CC(=O)C=C[C@]4(C)[C@@]3(F)[C@@H](O)C[C@]2(C)[C@@]1(O)C(=O)CO", "note": "[dexamethasone, Dexamethasone, reference compound]", "values": [{"measurement": "Urine AUC proteinuria, percent change vs vehicle", "setting": "[1]; G6: 1.5 mg/kg ip, 3× wk", "result": "−46", "unit": "%"}, {"measurement": "Cytokine AUC serum IL-1β, percent change vs vehicle", "setting": "[2]; G6: 1.5 mg/kg ip, 3× wk", "result": "−44", "unit": "%"}, {"measurement": "Cytokine AUC serum IL-12, percent change vs vehicle", "setting": "[2]; G6: 1.5 mg/kg ip, 3× wk", "result": "−74", "unit": "%"}, {"measurement": "Cytokine AUC serum TNFα, percent change vs vehicle", "setting": "[2]; G6: 1.5 mg/kg ip, 3× wk", "result": "−87", "unit": "%"}, {"measurement": "Spleen mass EOS, percent change vs vehicle", "setting": "[3]; G5 1.5 mg/kg ip, 3× wk", "result": "−59", "unit": "%"}, {"measurement": "AUC lymphomegaly, percent of non enlarged lymph nodes relative to vehicle", "setting": "[4]; G6: 1.5 mg/kg ip, 3× wk", "result": 22, "unit": "%"}]}]}
